ChEMBL document CHEMBL3400015, “Tertiary amides of Salinomycin: A new group of antibacterial agents against Bacillus anthracis and methicillin-resistant Staphylococcus epidermidis” (Bioorg Med Chem Lett, 2015)
Converted amounts (≈) assume the structure as drawn. The source made the active and inactive calls. No cut-off for these calls is given here.

Columns and labels:
[1] = tested on: Staphylococcus epidermidis; assay: Bactericidal activity against methicillin-resistant Staphylococcus epidermidis isolate 455/11 after 24 hrs; assay type: functional; details: isolate 455/11, 24 h, read-out: MBC99.9
[2] = tested on: Staphylococcus epidermidis; assay: Ratio of ciprofloxacin MIC to compound MIC for methicillin-resistant Staphylococcus epidermidis clinical isolate after 18 hrs by twofold serial broth dilution method; assay type: functional
Staphylococcus aureus [3] = assay: Antimicrobial activity against Staphylococcus aureus NCTC 4163 after 18 hrs by twofold serial broth dilution method; assay type: functional; details: NCTC 4163, 18 h
Pseudomonas aeruginosa [4] = assay: Bactericidal activity against Pseudomonas aeruginosa ATCC 15442 after 24 hrs; assay type: functional; details: ATCC 15442, 24 h, read-out: MBC99.9
Escherichia coli [5] = assay: Antimicrobial activity against Escherichia coli ATCC 10538 after 18 hrs by twofold serial broth dilution method; assay type: functional; details: ATCC 10538, 18 h
[6] = tested on: Staphylococcus epidermidis; assay: Antimicrobial activity against methicillin-resistant Staphylococcus epidermidis isolate 422/10 after 18 hrs by twofold serial broth dilution method; assay type: functional; details: isolate 422/10, 18 h
Escherichia coli [7] = assay: Antimicrobial activity against Escherichia coli ATCC 25922 after 18 hrs by twofold serial broth dilution method; assay type: functional; details: ATCC 25922, 18 h
[8] = tested on: Staphylococcus epidermidis; assay: Antimicrobial activity against Staphylococcus epidermidis ATCC 35984 after 18 hrs by twofold serial broth dilution method; assay type: functional; details: ATCC 35984, 18 h
[9] = tested on: Staphylococcus epidermidis; assay: Bactericidal activity against methicillin-resistant Staphylococcus epidermidis isolate 470/11 after 24 hrs; assay type: functional; details: isolate 470/11, 24 h, read-out: MBC99.9
[10] = tested on: Staphylococcus epidermidis; assay: Antimicrobial activity against methicillin-resistant Staphylococcus epidermidis isolate 404/10 after 18 hrs by twofold serial broth dilution method; assay type: functional; details: isolate 404/10, 18 h
[11] = tested on: Staphylococcus epidermidis; assay: Antimicrobial activity against methicillin-resistant Staphylococcus epidermidis isolate 407/10 after 18 hrs by twofold serial broth dilution method; assay type: functional; details: isolate 407/10, 18 h
Staphylococcus aureus [12] = assay: Bactericidal activity against Staphylococcus aureus ATCC 25923 after 24 hrs; assay type: functional; details: ATCC 25923, 24 h, read-out: MBC99.9
[13] = tested on: Staphylococcus epidermidis; assay: Antimicrobial activity against methicillin-resistant Staphylococcus epidermidis isolate 405/10 after 18 hrs by twofold serial broth dilution method; assay type: functional; details: isolate 405/10, 18 h
Pseudomonas aeruginosa [14] = assay: Antimicrobial activity against Pseudomonas aeruginosa ATCC 27853 after 18 hrs by twofold serial broth dilution method; assay type: functional; details: ATCC 27853, 18 h
[15] = tested on: Staphylococcus epidermidis; assay: Antimicrobial activity against methicillin-resistant Staphylococcus epidermidis isolate 460/11 after 18 hrs by twofold serial broth dilution method; assay type: functional; details: isolate 460/11, 18 h
Bacillus subtilis = assay: Genotoxicity in rec-negative Bacillus subtilis M45 at 2 ug/9 mm disc after 24 hrs by disc diffusion method; assay type: toxicity, organism-based
Escherichia coli [16] = assay: Bactericidal activity against Escherichia coli ATCC 25922 after 24 hrs; assay type: functional; details: ATCC 25922, 24 h, read-out: MBC99.9
[17] = tested on: Staphylococcus epidermidis; assay: Inhibition of Staphylococcus epidermidis isolate 461/11 biofilm formation at 1 to 32 ug/ml after 24 hrs by MTT assay; assay type: functional, organism-based
[18] = tested on: Staphylococcus epidermidis; assay: Inhibition of Staphylococcus epidermidis ATCC 12228 biofilm formation at 1 to 32 ug/ml after 24 hrs by MTT assay; assay type: functional, organism-based
[19] = tested on: Staphylococcus epidermidis; assay: Inhibition of Staphylococcus epidermidis ATCC 35984 biofilm formation at 1 to 32 ug/ml after 24 hrs by MTT assay; assay type: functional, organism-based
[20] = tested on: Staphylococcus epidermidis; assay: Inhibition of Staphylococcus epidermidis isolate 407/10 biofilm formation at 1 to 32 ug/ml after 24 hrs by MTT assay; assay type: functional, organism-based
[21] = tested on: Staphylococcus epidermidis; assay: Inhibition of Staphylococcus epidermidis isolate 409/10 biofilm formation at 1 to 32 ug/ml after 24 hrs by MTT assay; assay type: functional, organism-based
[22] = tested on: Staphylococcus epidermidis; assay: Inhibition of Staphylococcus epidermidis isolate 469/11 biofilm formation at 1 to 32 ug/ml after 24 hrs by MTT assay; assay type: functional, organism-based

SMILES | MBC [1] [µg/mL] | Ratio [2] | MIC (Staphylococcus aureus [3]) [µg/mL] | MBC (Pseudomonas aeruginosa [4]) [µg/mL] | MIC (Escherichia coli [5]) [µg/mL] | MIC [6] [µg/mL] | MIC (Escherichia coli [7]) [µg/mL] | MIC [8] [µg/mL] | MBC [9] [µg/mL] | MIC [10] [µg/mL] | MIC [11] [µg/mL] | MBC (Staphylococcus aureus [12]) [µg/mL] | MIC [13] [µg/mL] | MIC (Pseudomonas aeruginosa [14]) [µg/mL] | MIC [15] [µg/mL] | diameter of the inhibition zone (DIZ) (Bacillus subtilis) [mm] | MBC (Escherichia coli [16]) [µg/mL] | further results
CCCN(CCC)C(=O)[C@H](CC)[C@H]1CC[C@H](C)[C@H]([C@@H](C)[C@H](O)[C@H](C)C(=O)[C@H](CC)[C@H]2O[C@]3(C=C[C@@H](O)[C@]4(CC[C@@](C)([C@H]5CC[C@](O)(CC)[C@H](C)O5)O4)O3)[C@H](C)C[C@@H]2C)O1 | 256 (≈ 307 µM) | 40 | 2 (≈ 2.4 µM) | > 256 | > 256 | 8 (≈ 9.59 µM) | > 256 | 2 (≈ 2.4 µM) | 256 (≈ 307 µM) | 4 (≈ 4.8 µM) | 4 (≈ 4.8 µM) | > 256 | 8 (≈ 9.59 µM) | > 256 | 8 (≈ 9.59 µM) | 26 | > 256 | 
CC[C@@H](C(=O)[C@@H](C)[C@@H](O)[C@H](C)[C@@H]1O[C@@H]([C@@H](CC)C(=O)N(CCOC)CCOC)CC[C@@H]1C)[C@H]1O[C@]2(C=C[C@@H](O)[C@]3(CC[C@@](C)([C@H]4CC[C@](O)(CC)[C@H](C)O4)O3)O2)[C@H](C)C[C@@H]1C | > 256 |  | 64 (≈ 73.9 µM) | > 256 | > 256 | 128 (≈ 148 µM) | > 256 | 128 (≈ 148 µM) | > 256 | 128 (≈ 148 µM) | 128 (≈ 148 µM) | > 256 | 256 (≈ 296 µM) | > 256 | 128 (≈ 148 µM) | 14 | > 256 | 
CC[C@@H](C(=O)[C@@H](C)[C@@H](O)[C@H](C)[C@@H]1O[C@@H]([C@@H](CC)C(=O)N2CCOCC2)CC[C@@H]1C)[C@H]1O[C@]2(C=C[C@@H](O)[C@]3(CC[C@@](C)([C@H]4CC[C@](O)(CC)[C@H](C)O4)O3)O2)[C@H](C)C[C@@H]1C | > 256 |  | 256 (≈ 312 µM) | > 256 | 256 (≈ 312 µM) | 256 (≈ 312 µM) | 256 (≈ 312 µM) | 128 (≈ 156 µM) | > 256 | 256 (≈ 312 µM) | > 256 | > 256 | 256 (≈ 312 µM) | 256 (≈ 312 µM) | 256 (≈ 312 µM) |  | > 256 | 
CC[C@@H](C(=O)[C@@H](C)[C@@H](O)[C@H](C)[C@@H]1O[C@@H]([C@@H](CC)C(=O)N(CCO)CCO)CC[C@@H]1C)[C@H]1O[C@]2(C=C[C@@H](O)[C@]3(CC[C@@](C)([C@H]4CC[C@](O)(CC)[C@H](C)O4)O3)O2)[C@H](C)C[C@@H]1C | 256 (≈ 305 µM) | 40 | 4 (≈ 4.77 µM) | > 256 | > 256 | 2 (≈ 2.39 µM) | > 256 | 4 (≈ 4.77 µM) | 256 (≈ 305 µM) | 4 (≈ 4.77 µM) | 4 (≈ 4.77 µM) | 256 (≈ 305 µM) | 2 (≈ 2.39 µM) | > 256 | 4 (≈ 4.77 µM) | 29 | > 256 | 
CC[C@@H](C(=O)[C@@H](C)[C@@H](O)[C@H](C)[C@@H]1O[C@@H]([C@@H](CC)C(=O)N(CC)CC)CC[C@@H]1C)[C@H]1O[C@]2(C=C[C@@H](O)[C@]3(CC[C@@](C)([C@H]4CC[C@](O)(CC)[C@H](C)O4)O3)O2)[C@H](C)C[C@@H]1C | 256 (≈ 318 µM) | 40 | 4 (≈ 4.96 µM) | > 256 | > 256 | 8 (≈ 9.92 µM) | > 256 | 4 (≈ 4.96 µM) | 128 (≈ 159 µM) | 4 (≈ 4.96 µM) | 4 (≈ 4.96 µM) | 64 (≈ 79.4 µM) | 8 (≈ 9.92 µM) | > 256 | 8 (≈ 9.92 µM) | 26 | > 256 | 
CC[C@@H](C(=O)[C@@H](C)[C@@H](O)[C@H](C)[C@@H]1O[C@@H]([C@@H](CC)C(=O)N(Cc2ccccc2)Cc2ccccc2)CC[C@@H]1C)[C@H]1O[C@]2(C=C[C@@H](O)[C@]3(CC[C@@](C)([C@H]4CC[C@](O)(CC)[C@H](C)O4)O3)O2)[C@H](C)C[C@@H]1C | 256 (≈ 275 µM) |  | 16 (≈ 17.2 µM) | > 256 | > 256 | 16 (≈ 17.2 µM) | > 256 | 8 (≈ 8.6 µM) | > 256 | 32 (≈ 34.4 µM) | 16 (≈ 17.2 µM) | 128 (≈ 138 µM) | 8 (≈ 8.6 µM) | > 256 | 32 (≈ 34.4 µM) | 20 | > 256 | 
CCCCN(CCCC)C(=O)[C@H](CC)[C@H]1CC[C@H](C)[C@H]([C@@H](C)[C@H](O)[C@H](C)C(=O)[C@H](CC)[C@H]2O[C@]3(C=C[C@@H](O)[C@]4(CC[C@@](C)([C@H]5CC[C@](O)(CC)[C@H](C)O5)O4)O3)[C@H](C)C[C@@H]2C)O1 | 256 (≈ 297 µM) |  | 8 (≈ 9.28 µM) | > 256 | > 256 | 8 (≈ 9.28 µM) | > 256 | 8 (≈ 9.28 µM) | > 256 | 8 (≈ 9.28 µM) | 8 (≈ 9.28 µM) | 256 (≈ 297 µM) | 4 (≈ 4.64 µM) | > 256 | 8 (≈ 9.28 µM) | 30 | > 256 | 
O=C(O)c1cn(C2CC2)c2cc(N3CCNCC3)c(F)cc2c1=O [CIPROFLOXACIN] | > 256 |  | 0.25 (≈ 0.754 µM) | 0.25 (≈ 0.754 µM) |  | 2 (≈ 6.04 µM) |  | 0.125 (≈ 0.377 µM) | 0.5 (≈ 1.51 µM) | 32 (≈ 96.6 µM) | 64 (≈ 193 µM) | 2 (≈ 6.04 µM) | 2 (≈ 6.04 µM) |  | 0.125 (≈ 0.377 µM) |  | 0.0016 (≈ 0.00483 µM) | inhibition [17]: Active; inhibition [18]: Active; inhibition [19]: Active; inhibition [20]: Active; inhibition [21]: Active; inhibition [22]: Active
CCCCCCCCN(CCCCCCCC)C(=O)[C@H](CC)[C@H]1CC[C@H](C)[C@H]([C@@H](C)[C@H](O)[C@H](C)C(=O)[C@H](CC)[C@H]2O[C@]3(C=C[C@@H](O)[C@]4(CC[C@@](C)([C@H]5CC[C@](O)(CC)[C@H](C)O5)O4)O3)[C@H](C)C[C@@H]2C)O1 | > 256 |  | 256 (≈ 263 µM) | > 256 | > 256 | 256 (≈ 263 µM) | > 256 | 128 (≈ 131 µM) | > 256 | 256 (≈ 263 µM) | 256 (≈ 263 µM) | > 256 | > 256 | > 256 | 256 (≈ 263 µM) |  | > 256 | 
CC[C@@H](C(=O)[C@@H](C)[C@@H](O)[C@H](C)[C@@H]1O[C@@H]([C@@H](CC)C(=O)N2CCNCC2)CC[C@@H]1C)[C@H]1O[C@]2(C=C[C@@H](O)[C@]3(CC[C@@](C)([C@H]4CC[C@](O)(CC)[C@H](C)O4)O3)O2)[C@H](C)C[C@@H]1C | > 256 |  | 128 (≈ 156 µM) | > 256 | > 256 | 128 (≈ 156 µM) | > 256 | 128 (≈ 156 µM) | > 256 | 64 (≈ 78.1 µM) | 128 (≈ 156 µM) | > 256 | 64 (≈ 78.1 µM) | > 256 | 128 (≈ 156 µM) | 14 | > 256 | 
